Article PMC6022228, “Introducing novel potent anticancer agents of 1H-benzo[f]chromene scaffolds, targeting c-Src kinase enzyme with MDA-MB-231 cell line anti-invasion effect” (Journal of Enzyme Inhibition and Medicinal Chemistry, 2018)
Converted amounts (≈) assume the structure as drawn.

Columns and labels:
HepG-2 = experiment: MTT viability assay, HepG-2 (liver cancer); format: cell-based; settings: Homo sapiens, HepG2, 24 h incubation, mean ± standard error
Experimental: (§1) Compounds 4a–h and 6a–h were initially evaluated for in vitro antitumour activity against three different human cell lines: MCF-7, HCT-116, and HepG-2, and only the representative active cytotoxic compounds were further evaluated against the normal HFL-1 cell line. The in vitro cytotoxicity evaluation was performed at the Regional Center for Mycology & Biotechnology (RCMP), Al-Azhar University under different concentrations (50, 25, 12.5, 6.25, 3.125, 1.56, and 0 µg/mL); Vinblastine and Doxorubicin are used as reference cytotoxic compounds. The measurements of cell growth and the in vitro cytotoxicity evaluation were determined using viability assay as described in literature[31–33] and the result was cited in Table 1 and Figure 2.
(§2) The in vitro cytotoxic evaluation of the prepared compounds 4a–h and 6a–h was performed against MCF-7 (breast cancer), HCT-116 (human colon cancer), HepG-2 (liver cancer), and HFL-1(normal fibroblast lung) using the 3-(4,5-dimethylthiazol-2-yl)-2,5-diphenyl tetrazolium bromide (MTT) colorimetric assay as described in literature. […] The results were expressed as growth inhibitory concentration (IC50) values, which represent the compounds’ concentrations required to produce a 50% inhibition of the cell growth after 24 h of incubation, compared to the untreated controls as shown in Table 1 and Figure 2.

HCT-116 = experiment: MTT viability assay, HCT-116 (human colon cancer); format: cell-based; settings: 24 h incubation, mean ± standard error
Experimental: as §1, §2

MCF-7 = experiment: MTT viability assay, MCF-7 (breast cancer); format: cell-based; settings: Homo sapiens, MCF7, 24 h incubation, mean ± standard error
Experimental: as §1, §2

SMILES	IC50 (HepG-2) [µg/mL]	IC50 (HCT-116) [µg/mL]	IC50 (MCF-7) [µg/mL]	melting point [°C]
COc1ccc(C2C(C#N)=C(N)Oc3ccc4cc(Br)ccc4c32)cc1 (centres unmarked) [Compound 4f, 3-Amino-8-bromo-1-(4-methoxyphenyl)-1H-benzo[f]chromene-2-carbonitrile]	4.4 ± 0.05 (≈ 10.8 µM)	44.9 ± 0.14 (≈ 110 µM)	3.8 ± 0.36 (≈ 9.33 µM)	234 to 235
COc1ccc(C2C(C#N)=C(N)Oc3ccc4cc(Br)ccc4c32)c(OC)c1 (centres unmarked) [Compound 4g, 3-Amino-8-bromo-1-(2,4-dimethoxyphenyl)-1H-benzo[f]chromene-2-carbonitrile]	2.8 ± 0.17 (≈ 6.4 µM)	3.7 ± 0.15 (≈ 8.46 µM)	3.6 ± 0.01 (≈ 8.23 µM)	220 to 221
COc1ccc2c3c(ccc2c1)OC(N)=C(C#N)C3c1ccc(F)cc1 (centres unmarked) [Compound 6b, 3-Amino-1-(4-flourophenyl)-8-methoxy-1H-benzo[f]chromene-2-carbonitrile]	0.5 ± 0.01 (≈ 1.44 µM)	4.9 ± 0.01 (≈ 14.1 µM)	4.4 ± 0.05 (≈ 12.7 µM)	256 to 257
N#CC1=C(N)Oc2ccc3cc(Br)ccc3c2C1c1ccccc1 (centres unmarked) [Compound 4a, 3-Amino-8-bromo-1-phenyl-1H-benzo[f]chromene-2-carbonitrile]	0.7 ± 0.5 (≈ 1.86 µM)	1.2 ± 0.97 (≈ 3.18 µM)	0.9 ± 0.29 (≈ 2.39 µM)	245 to 246
COc1ccc2c3c(ccc2c1)OC(N)=C(C#N)C3c1ccccc1 (centres unmarked) [Compound 6a, 3-Amino-1-phenyl-8-methoxy-1H-benzo[f]chromene-2-carbonitrile]	11.2 ± 0.18 (≈ 34.1 µM)	2.1 ± 0.23 (≈ 6.4 µM)	2.7 ± 0.2 (≈ 8.22 µM)	237 to 238
N#CC1=C(N)Oc2ccc3cc(Br)ccc3c2C1c1ccc(F)cc1 (centres unmarked) [Compound 4b, 3-Amino-8-bromo-1-(4-fluorophenyl)-1H-benzo[f]chromene-2-carbonitrile]	0.8 ± 0.12 (≈ 2.02 µM)	1 ± 0.12 (≈ 2.53 µM)	5.2 ± 0.03 (≈ 13.2 µM)	242 to 243
N#CC1=C(N)Oc2ccc3cc(Br)ccc3c2C1c1ccc(Br)cc1 (centres unmarked) [Compound 4d, 3-Amino-8-bromo-1-(4-bromophenyl)-1H-benzo[f]chromene-2-carbonitrile]	1.8 ± 0.2 (≈ 3.95 µM)	0.5 ± 0.35 (≈ 1.1 µM)	2.5 ± 0.14 (≈ 5.48 µM)	250 to 251

Now from value to molecule:

IC50 (HepG-2) [µg/mL]	IC50 (HCT-116) [µg/mL]	IC50 (MCF-7) [µg/mL]	melting point [°C]	SMILES
30.7 ± 0.5 (≈ 79 µM)	13.9 ± 0.3 (≈ 35.8 µM)	41.1 ± 0.25 (≈ 106 µM)	200 to 201	COc1ccc2c3c(ccc2c1)OC(N)=C(C#N)C3c1ccc(OC)c(OC)c1 (centres unmarked) [Compound 6h, 3-Amino-1-(3,4-dimethoxyphenyl)-8-methoxy-1H-benzo[f]chromene-2-carbonitrile]
0.9 ± 0.04 (≈ 1.66 µM)	0.5 ± 0.015 (≈ 0.92 µM)	0.4 ± 0.01 (≈ 0.736 µM)		COc1cccc2c1C(=O)c1c(O)c3c(c(O)c1C2=O)C[C@@](O)(C(=O)CO)C[C@@H]3O[C@H]1C[C@H](N)[C@H](O)[C@H](C)O1 [Doxorubicin, reference compound]
0.3 ± 0.08 (≈ 0.827 µM)	2.5 ± 0.97 (≈ 6.89 µM)	3.1 ± 0.29 (≈ 8.54 µM)	247 to 248	COc1ccc2c3c(ccc2c1)OC(N)=C(C#N)C3c1ccc(Cl)cc1 (centres unmarked) [Compound 6c, 3-Amino-1-(4-chlorophenyl)-8-methoxy-1H-benzo[f]chromene-2-carbonitrile]
9 ± 0.3 (≈ 23.2 µM)	10.9 ± 0.5 (≈ 28.1 µM)	16 ± 0.92 (≈ 41.2 µM)	210 to 211	COc1ccc(C2C(C#N)=C(N)Oc3ccc4cc(OC)ccc4c32)c(OC)c1 (centres unmarked) [Compound 6g, 3-Amino-1-(2,4-dimethoxyphenyl)-8-methoxy-1H-benzo[f]chromene-2-carbonitrile]
4.6 ± 0.01 (≈ 5.67 µM)	2.6 ± 0.08 (≈ 3.21 µM)	6.1 ± 0.03 (≈ 7.52 µM)		CC[C@]1(O)C[C@@H]2CN(CCc3c([nH]c4ccccc34)[C@@](C(=O)OC)(c3cc4c(cc3OC)N(C)[C@H]3[C@@](O)(C(=O)OC)[C@H](OC(C)=O)[C@]5(CC)C=CCN6CC[C@]43[C@@H]65)C2)C1 [Vinblastine, reference compound]
29.3 ± 0.12 (≈ 81.8 µM)	3.8 ± 0.14 (≈ 10.6 µM)	0.6 ± 0.08 (≈ 1.67 µM)	222 to 223	COc1ccc(C2C(C#N)=C(N)Oc3ccc4cc(OC)ccc4c32)cc1 (centres unmarked) [Compound 6f, 3-Amino-8-methoxy-1-(4-methoxyphenyl)-1H-benzo[f]chromene-2-carbonitrile]
